US11413261B2, “Pharmaceutical composition for treating cancer comprising lactate metal salt” (METIMEDI PHARMACEUTICALS CO., LTD, priority 2014, dated 2022)

What was measured:
[1] = tested on: PARP; test: PARP protein expression in breast cancer cell lines (Western blot); type: cell-based, human
Method: Human breast cancer cell lines (MCF-7 and MDA-MB-231) were cultured by the same method as that of Example 2-1 except that they were treated with 0 mM, 2.5 mM, or 5.0 mM calcium lactate, and the cultured cancer cells were obtained. Then, changes in expression level depending on the concentration of calcium lactate was analyzed at the protein expression levels of PARP included therein (FIG. 8). In this case, the change in expression level was analyzed through a Western blot using the Image-J program with anti-PARP antibody as a primary antibody and anti-rabbit IgG conjugate as a secondary antibody, and GAPDH was used as internal control groups.

[2] = tested on: MCF-7 cell line; test: Cell apoptosis rate by flow cytometry (FITC Annexin V / PI); type: cell-based; conditions: 2.5 mM, 24 hours (untreated 9.63%)
Method: (§1) Breast cancer cell lines (MCF-7 and MDA-MB231) were cultured for 24 hours with or without treating with 2.5 mM calcium lactate. Each of the breast cancer cell lines were treated with 5 μl of FITC Annexin V and 5 μl of PI and reacted at room temperature for 15 minutes and then, a flow cytometry analysis was conducted thereto using a FACS Calibur (BD Bioscience, USA) to evaluate staining thereof and thus measure a cancer cell apoptosis rate (FIG. 21a-21f).

[3] = tested on: MDA-MB231 cell line; test: as above; type: cell-based; conditions: 2.5 mM, 24 hours (untreated 10.17%)
Method: as §1

[4] = tested on: HIF-1α; test: HIF-1α expression in tumor tissues of animal model; type: in vivo, Balb/c mice; conditions: HT-29 tumor tissue
Method: A colorectal cancer cell (HT-29) cultured in an RPMI1640 medium and then diluted with PBS was subcutaneously implanted into the flank of Balb/c mice. The mice were bred until the colorectal cancer cell grew to about 5 mm. Then, four groups were set up; a control group untreated with calcium lactate for 30 days, an experimental group 1 (peroral, P.O.) administered with 2.5 mM calcium lactate by oral administration, an experimental group 2 (intra tumor, I.T) injected with 2.5 mM calcium lactate around tumor, and an experimental group 3 (subcutaneous, S.C) subcutaneously injected with 25 mM calcium lactate (FIG. 27).
(§2) Colorectal cancer tissues were extracted from the mice of the control group or the experimental group 1 set up in Example 10-1, and expression levels of HIF-1α and VEGF involved in metastasis, invasion, and angiogenesis of tumor expressed therein were compared (FIG. 29). In this case, GAPDH was used as internal control groups.
as §2, with “group 2” for “group 1”, “tumor” for “tumor expressed”, “(FIG. 31).” for “(FIG. 29).”

[5] = tested on: human liver cancer cell line (Hep3B); test: Colony-forming ability, anticancer drug in combination with calcium lactate (6-well plates); type: cell-based; conditions: 2.5 mM calcium lactate alone, vs control
Method: Human liver cancer cell line (Hep3B) with the cell number of 1×10^3 cells were seeded into an RPMI1640 medium in each of 6-well plates. After one day, the medium was replaced with fresh medium and the cells were treated with 2.5 mM calcium lactate or 1 μM, 2.5 μM, and 5 μM Sorafenib alone or treated with various concentrations (1 μM, 2.5 μM, and 5 μM) of Sorafenib in combination with 2.5 mM calcium lactate. Then, the colony-forming abilities of the cells were compared. In this case, a human liver cancer cell line (Hep3B) untreated with any drug was used as a control group (FIGS. 45a and 45b).

Compound: CC(O)C(=O)[O-].CC(O)C(=O)[O-].[Ca+2] (stereo not shown) [calcium lactate]
- protein expression levels of PARP ([1]; MCF-7 and MDA-MB-231, with increasing concentration (0, 2.5, 5.0 mM)): decreased
- protein expression levels of the truncated PARP ([1]; MCF-7 cell line, 0, 2.5, 5.0 mM): increased
- cell apoptosis rate [2]: 33.8%
- cell apoptosis rate [3]: 13.05%
- expression of HIF-1α ([4]; experimental group 1, 2.5 mM oral administration): inhibited
- expression of HIF-1α ([4]; experimental group 2, 2.5 mM injected around tumor): inhibited
- colony-forming ability [5]: suppressed
